# Assays:
# [1] = tested on: Tyrosine-protein kinase ABL1 (Homo sapiens), P00519 [T315I]; test: Inhibition of human truncated ABL T315I mutant expressed in baculovirus assessed as substrate phosphorylation using fluorescence-labelled peptides as substrate at 0.06 uM after 90 mins by microfluidic peptide phosphorylation assay
# [2] = biological target: Tyrosine-protein kinase ABL2 (Homo sapiens) (UniProt P42684); test: Inhibition of human truncated Arg expressed in baculovirus assessed as substrate phosphorylation using fluorescence-labelled peptides as substrate at 420 uM after 90 mins by microfluidic peptide phosphorylation assay
# [3] = tested on: Tyrosine-protein kinase ABL1 (Homo sapiens), P00519 [H396P]; test: Inhibition of human truncated ABL H396P mutant expressed in baculovirus assessed as substrate phosphorylation using fluorescence-labelled peptides as substrate at 0.2 uM after 90 mins by microfluidic peptide phosphorylation assay
# [4] = biological target: Ribosomal protein S6 kinase alpha-5 (Homo sapiens) (UniProt O75582); test: Inhibition of human full length MSK1 expressed in baculovirus assessed as substrate phosphorylation using fluorescence-labelled peptides as substrate at 0.2 uM after 90 mins by microfluidic peptide phosphorylation assay
# [5] = biological target: RAC-alpha serine/threonine-protein kinase (Homo sapiens) (UniProt P31749); test: Inhibition of human AKT1 catalytic domain expressed in baculovirus assessed as substrate phosphorylation using fluorescence-labelled peptides as substrate at 0.2 uM after 90 mins by microfluidic peptide phosphorylation assay
# [6] = biological target: Mitogen-activated protein kinase 3 (Homo sapiens) (UniProt P27361); test: Inhibition of human full length ERK1 expressed in Escherichia coli cell assessed as substrate phosphorylation using fluorescence-labelled peptides as substrate at 0.2 uM after 90 mins by microfluidic peptide phosphorylation assay
# [7] = biological target: Serine/threonine-protein kinase MARK1 (Homo sapiens) (UniProt Q9P0L2); test: Inhibition of human full length MARK1 expressed in baculovirus assessed as substrate phosphorylation using fluorescence-labelled peptides as substrate at 0.2 uM after 90 mins by microfluidic peptide phosphorylation assay
# [8] = biological target: Dual specificity tyrosine-phosphorylation-regulated kinase 1A (Rattus norvegicus) (UniProt Q63470); test: Inhibition of rat full length DYRK1a expressed in Escherichia coli cell assessed as substrate phosphorylation using fluorescence-labelled peptides as substrate at 0.1 uM after 90 mins by microfluidic peptide phosphorylation assay
# [9] = biological target: MAP kinase p38 (Homo sapiens) (UniProt O15264+Q15759+Q16539+P53778); test: Inhibition of human full length p38 beta2 expressed in Escherichia coli cell assessed as substrate phosphorylation using fluorescence-labelled peptides as substrate at 9 uM after 90 mins by microfluidic peptide phosphorylation assay
# [10] = biological target: T1, Protein kinase C epsilon type (Homo sapiens) (UniProt Q02156); test: Inhibition of human truncated PKC epsilon expressed in baculovirus assessed as substrate phosphorylation using fluorescence-labelled peptides as substrate at 9 uM after 90 mins by microfluidic peptide phosphorylation assay
# T1 sequence (whole entry): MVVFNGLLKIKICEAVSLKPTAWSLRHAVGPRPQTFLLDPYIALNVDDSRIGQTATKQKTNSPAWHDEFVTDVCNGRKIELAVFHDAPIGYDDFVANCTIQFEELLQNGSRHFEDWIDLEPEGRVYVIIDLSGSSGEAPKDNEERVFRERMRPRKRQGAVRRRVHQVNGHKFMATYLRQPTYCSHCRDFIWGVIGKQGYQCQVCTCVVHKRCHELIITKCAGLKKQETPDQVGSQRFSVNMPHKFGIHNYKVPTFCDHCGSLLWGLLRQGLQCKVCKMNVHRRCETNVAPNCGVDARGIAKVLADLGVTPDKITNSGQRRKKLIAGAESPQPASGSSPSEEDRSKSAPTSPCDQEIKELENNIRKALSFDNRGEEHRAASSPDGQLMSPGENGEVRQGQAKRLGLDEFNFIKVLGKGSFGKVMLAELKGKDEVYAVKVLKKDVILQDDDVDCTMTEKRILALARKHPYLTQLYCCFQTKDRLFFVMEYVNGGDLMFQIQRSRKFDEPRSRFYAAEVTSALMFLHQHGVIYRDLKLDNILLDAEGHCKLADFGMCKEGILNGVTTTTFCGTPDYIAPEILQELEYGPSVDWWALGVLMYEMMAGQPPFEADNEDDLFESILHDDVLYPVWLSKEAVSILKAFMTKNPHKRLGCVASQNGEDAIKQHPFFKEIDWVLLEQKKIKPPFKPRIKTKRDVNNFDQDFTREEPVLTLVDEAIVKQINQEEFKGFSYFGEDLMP
# [11] = biological target: Vascular endothelial growth factor receptor 2 (Homo sapiens) (UniProt P35968); test: Inhibition of human KDR cytoplasmic domain expressed in baculovirus assessed as substrate phosphorylation using fluorescence-labelled peptides as substrate at 9 uM after 90 mins by microfluidic peptide phosphorylation assay
# [12] = biological target: Tyrosine-protein kinase ABL2 (Homo sapiens) (UniProt P42684); test: Inhibition of human truncated Arg expressed in baculovirus assessed as substrate phosphorylation using fluorescence-labelled peptides as substrate at 9 uM after 90 mins by microfluidic peptide phosphorylation assay
# [13] = biological target: Mitogen-activated protein kinase 14 (Homo sapiens) (UniProt Q16539); test: Inhibition of human truncated p38 alpha expressed in Escherichia coli cell assessed as substrate phosphorylation using fluorescence-labelled peptides as substrate at 8 uM after 90 mins by microfluidic peptide phosphorylation assay
# [14] = biological target: T2, Testis-specific serine/threonine-protein kinase 2 (Homo sapiens) (UniProt Q96PF2); test: Inhibition of human full length TSSK2 expressed in baculovirus assessed as substrate phosphorylation using fluorescence-labelled peptides as substrate at 8 uM after 90 mins by microfluidic peptide phosphorylation assay
# T2 sequence (whole entry): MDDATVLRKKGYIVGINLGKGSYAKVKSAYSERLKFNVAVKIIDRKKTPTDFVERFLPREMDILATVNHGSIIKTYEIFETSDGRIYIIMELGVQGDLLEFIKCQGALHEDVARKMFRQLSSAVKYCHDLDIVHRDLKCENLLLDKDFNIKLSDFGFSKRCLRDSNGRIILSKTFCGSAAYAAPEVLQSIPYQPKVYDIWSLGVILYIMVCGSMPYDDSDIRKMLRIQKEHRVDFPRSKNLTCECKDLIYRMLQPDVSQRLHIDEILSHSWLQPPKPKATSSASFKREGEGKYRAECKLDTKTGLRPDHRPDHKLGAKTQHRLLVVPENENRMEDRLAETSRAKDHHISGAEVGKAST
# [15] = biological target: Tyrosine-protein kinase Lyn (Homo sapiens) (UniProt P07948); test: Inhibition of human full length LYN expressed in baculovirus assessed as substrate phosphorylation using fluorescence-labelled peptides as substrate at 8 uM after 90 mins by microfluidic peptide phosphorylation assay
# [16] = biological target: Serine/threonine-protein kinase pim-1 (Homo sapiens) (UniProt P11309); test: Inhibition of human full length PIM1 expressed in baculovirus assessed as substrate phosphorylation using fluorescence-labelled peptides as substrate at 1000 uM after 90 mins by microfluidic peptide phosphorylation assay
# [17] = biological target: Protein kinase C alpha type (Homo sapiens) (UniProt P17252); test: Inhibition of human truncated PKC alpha expressed in baculovirus assessed as substrate phosphorylation using fluorescence-labelled peptides as substrate at 1000 uM after 90 mins by microfluidic peptide phosphorylation assay
# Tyrosine-protein kinase ABL2 (Homo sapiens), sequence (P42684 whole entry, the tested form may be a part): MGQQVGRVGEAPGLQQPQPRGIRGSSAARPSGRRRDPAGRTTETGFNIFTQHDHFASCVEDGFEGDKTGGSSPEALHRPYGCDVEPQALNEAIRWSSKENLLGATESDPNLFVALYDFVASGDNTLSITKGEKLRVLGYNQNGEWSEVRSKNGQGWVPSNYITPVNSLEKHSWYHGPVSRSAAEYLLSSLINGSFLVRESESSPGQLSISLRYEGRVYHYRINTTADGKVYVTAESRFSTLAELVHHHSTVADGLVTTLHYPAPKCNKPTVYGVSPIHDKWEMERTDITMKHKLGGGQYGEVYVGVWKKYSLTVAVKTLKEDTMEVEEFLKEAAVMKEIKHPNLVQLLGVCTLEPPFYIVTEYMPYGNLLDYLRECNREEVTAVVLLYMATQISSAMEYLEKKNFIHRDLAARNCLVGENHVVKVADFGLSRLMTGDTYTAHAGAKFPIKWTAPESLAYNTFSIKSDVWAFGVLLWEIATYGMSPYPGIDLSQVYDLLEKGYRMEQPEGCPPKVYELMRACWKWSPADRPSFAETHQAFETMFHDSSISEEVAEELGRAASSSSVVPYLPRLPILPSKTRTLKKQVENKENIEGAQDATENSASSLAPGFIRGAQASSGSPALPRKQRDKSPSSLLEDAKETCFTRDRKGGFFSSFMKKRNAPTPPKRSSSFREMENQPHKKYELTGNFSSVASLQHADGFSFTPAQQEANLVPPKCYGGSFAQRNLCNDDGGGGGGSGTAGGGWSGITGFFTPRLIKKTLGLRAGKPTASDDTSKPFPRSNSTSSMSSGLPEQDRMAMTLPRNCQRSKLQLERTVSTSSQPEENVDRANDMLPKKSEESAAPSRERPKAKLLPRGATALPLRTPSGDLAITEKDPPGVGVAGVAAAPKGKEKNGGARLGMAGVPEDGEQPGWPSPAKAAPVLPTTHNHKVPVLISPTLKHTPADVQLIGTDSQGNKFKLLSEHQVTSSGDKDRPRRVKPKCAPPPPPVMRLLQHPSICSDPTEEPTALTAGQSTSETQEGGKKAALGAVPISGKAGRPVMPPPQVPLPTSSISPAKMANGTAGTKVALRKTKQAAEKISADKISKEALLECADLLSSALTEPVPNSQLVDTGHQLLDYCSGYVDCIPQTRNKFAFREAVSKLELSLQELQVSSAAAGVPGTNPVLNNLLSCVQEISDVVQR
# Tyrosine-protein kinase Lyn (Homo sapiens), sequence (P07948 2-512 limits assumed): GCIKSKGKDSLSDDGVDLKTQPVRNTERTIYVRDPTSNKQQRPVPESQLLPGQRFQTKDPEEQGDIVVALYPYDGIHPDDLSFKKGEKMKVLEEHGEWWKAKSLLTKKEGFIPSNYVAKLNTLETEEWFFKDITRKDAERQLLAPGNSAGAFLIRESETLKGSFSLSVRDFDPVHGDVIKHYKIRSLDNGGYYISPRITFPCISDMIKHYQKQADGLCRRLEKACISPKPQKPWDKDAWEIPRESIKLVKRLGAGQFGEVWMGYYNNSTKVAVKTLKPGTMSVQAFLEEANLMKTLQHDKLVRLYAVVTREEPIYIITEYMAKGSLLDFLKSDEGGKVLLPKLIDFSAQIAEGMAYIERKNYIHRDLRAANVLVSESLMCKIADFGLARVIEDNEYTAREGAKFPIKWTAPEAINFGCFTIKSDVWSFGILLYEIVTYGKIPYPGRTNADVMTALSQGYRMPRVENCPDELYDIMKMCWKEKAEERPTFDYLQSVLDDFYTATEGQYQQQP
# Serine/threonine-protein kinase MARK1 (Homo sapiens), sequence (Q9P0L2 whole entry, looked up): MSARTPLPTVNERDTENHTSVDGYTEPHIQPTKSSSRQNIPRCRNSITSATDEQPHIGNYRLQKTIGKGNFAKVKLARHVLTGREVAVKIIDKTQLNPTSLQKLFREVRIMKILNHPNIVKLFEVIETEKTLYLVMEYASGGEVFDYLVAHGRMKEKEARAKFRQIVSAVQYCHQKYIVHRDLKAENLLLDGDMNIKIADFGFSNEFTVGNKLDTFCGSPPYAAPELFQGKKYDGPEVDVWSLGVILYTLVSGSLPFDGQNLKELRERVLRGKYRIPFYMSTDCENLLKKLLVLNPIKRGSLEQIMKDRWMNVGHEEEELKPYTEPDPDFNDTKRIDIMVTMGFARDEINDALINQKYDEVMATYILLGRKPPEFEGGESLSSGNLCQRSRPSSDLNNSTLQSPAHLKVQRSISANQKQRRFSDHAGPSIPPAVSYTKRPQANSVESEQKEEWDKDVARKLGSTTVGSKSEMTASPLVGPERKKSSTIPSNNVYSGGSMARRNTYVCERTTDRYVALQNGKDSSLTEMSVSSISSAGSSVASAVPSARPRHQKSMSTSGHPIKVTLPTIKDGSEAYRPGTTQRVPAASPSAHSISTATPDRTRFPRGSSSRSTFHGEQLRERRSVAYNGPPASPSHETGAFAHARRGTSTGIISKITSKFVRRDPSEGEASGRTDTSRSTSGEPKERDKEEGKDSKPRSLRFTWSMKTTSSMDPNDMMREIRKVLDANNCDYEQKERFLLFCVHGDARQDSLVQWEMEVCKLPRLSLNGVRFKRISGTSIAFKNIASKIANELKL
# Ribosomal protein S6 kinase alpha-5 (Homo sapiens), sequence (O75582 whole entry, looked up, the tested form may be a part): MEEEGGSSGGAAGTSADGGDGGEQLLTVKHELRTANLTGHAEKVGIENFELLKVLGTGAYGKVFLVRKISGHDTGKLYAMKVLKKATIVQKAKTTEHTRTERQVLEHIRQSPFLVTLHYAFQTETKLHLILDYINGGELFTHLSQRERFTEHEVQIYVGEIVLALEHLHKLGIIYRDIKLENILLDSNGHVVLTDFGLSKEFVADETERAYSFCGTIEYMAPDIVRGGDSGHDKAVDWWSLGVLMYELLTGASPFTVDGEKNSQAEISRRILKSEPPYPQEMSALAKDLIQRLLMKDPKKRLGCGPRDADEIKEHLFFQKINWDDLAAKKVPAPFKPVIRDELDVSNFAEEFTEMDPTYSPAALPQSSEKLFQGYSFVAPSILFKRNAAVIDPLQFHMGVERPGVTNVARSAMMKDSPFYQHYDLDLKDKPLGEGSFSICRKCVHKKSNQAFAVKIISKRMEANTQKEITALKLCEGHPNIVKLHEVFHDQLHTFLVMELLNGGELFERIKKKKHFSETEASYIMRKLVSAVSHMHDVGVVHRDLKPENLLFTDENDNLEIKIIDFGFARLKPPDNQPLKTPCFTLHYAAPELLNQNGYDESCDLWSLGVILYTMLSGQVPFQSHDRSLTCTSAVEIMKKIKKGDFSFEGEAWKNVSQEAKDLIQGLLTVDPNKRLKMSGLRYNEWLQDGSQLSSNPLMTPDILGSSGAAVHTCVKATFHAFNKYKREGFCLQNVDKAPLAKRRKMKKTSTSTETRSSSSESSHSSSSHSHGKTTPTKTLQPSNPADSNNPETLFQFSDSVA
# Serine/threonine-protein kinase pim-1 (Homo sapiens), sequence (P11309 whole entry, looked up, the tested form may be a part): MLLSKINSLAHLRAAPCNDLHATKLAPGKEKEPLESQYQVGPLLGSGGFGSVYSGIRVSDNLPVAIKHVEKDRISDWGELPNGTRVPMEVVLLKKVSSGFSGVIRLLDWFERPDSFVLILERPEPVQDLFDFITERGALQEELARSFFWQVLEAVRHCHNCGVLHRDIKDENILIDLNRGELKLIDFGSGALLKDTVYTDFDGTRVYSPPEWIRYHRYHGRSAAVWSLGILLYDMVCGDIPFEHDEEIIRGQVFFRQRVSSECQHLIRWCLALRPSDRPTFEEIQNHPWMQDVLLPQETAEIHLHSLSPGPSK
# RAC-alpha serine/threonine-protein kinase (Homo sapiens), sequence (P31749 whole entry, the tested form may be a part): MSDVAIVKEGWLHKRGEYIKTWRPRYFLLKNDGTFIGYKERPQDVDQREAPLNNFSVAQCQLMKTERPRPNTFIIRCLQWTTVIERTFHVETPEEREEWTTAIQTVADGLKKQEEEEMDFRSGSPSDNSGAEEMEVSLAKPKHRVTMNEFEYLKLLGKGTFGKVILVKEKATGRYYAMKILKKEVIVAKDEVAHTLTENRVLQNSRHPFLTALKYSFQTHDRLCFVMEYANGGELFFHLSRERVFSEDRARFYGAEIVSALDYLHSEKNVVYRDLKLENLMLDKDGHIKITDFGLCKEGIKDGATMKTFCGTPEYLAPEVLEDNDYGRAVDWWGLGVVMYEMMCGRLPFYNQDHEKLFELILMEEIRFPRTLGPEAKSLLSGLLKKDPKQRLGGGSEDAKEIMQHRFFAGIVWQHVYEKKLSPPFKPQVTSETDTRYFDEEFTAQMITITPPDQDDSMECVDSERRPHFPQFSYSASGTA
compound,measurement,setting,value
NC1(Cc2ccc(Cl)cc2)CCN(c2ncnc3[nH]ccc23)CC1,inhibition,[1],0%
c1nc(N2CCOCC2)c2nc[nH]c2n1,inhibition,[2],54.5%
Clc1ccc(C2(c3ccc(-c4ncnc5[nH]cnc45)cc3)CCNCC2)cc1,inhibition,[3],4.5%
same,inhibition,[4],90%
same,inhibition,[5],94%
same,inhibition,[6],6%
same,inhibition,[7],51%
C[C@H](CN(C)C)Oc1nc(Nc2cc3cccc(Cl)c3cn2)cnc1C#N,inhibition,[8],3.5%
NCC1CN(c2ncnc3[nH]c4cnccc4c23)CCO1 (configuration not stated),inhibition,[9],0%
same,inhibition,[10],14.5%
same,inhibition,[11],63.5%
same,inhibition,[12],6.5%
NCC1CCN(c2ncnc3[nH]ccc23)CC1,inhibition,[13],7%
same,inhibition,[14],23.5%
same,inhibition,[15],51%
c1cnc2[nH]ccc2c1,inhibition,[16],20%
same,inhibition,[17],43%

# — ChEMBL document CHEMBL3132769, “Fragment growing to retain or alter the selectivity of anchored kinase hinge-binding fragments” (Medchemcomm, 2014)
